Measurements: ChEMBL document CHEMBL1122367, “Synthesis and antihypertensive activity of a series of spiro[1,3,4,6,7,11b-hexahydro-2H-benzo[a]quinolizine-2,5'-oxazolidin-2'-one]s” (1983)
Activity calls are given as the source filed them. The calls are words filed in the database; no cut-off is given here.

Key:
Rattus norvegicus [1] = experiment: Percentage fall in systolic blood pressure in spontaneously hypertensive rats 3h after 50 mg/kg p.o. administration; Not significant.; format: functional, organism-based; design: dose 50 mg/kg; conditions: Artery, at 50 mg/kg
Rattus norvegicus [2] = experiment: Antihypertensive activity as percentage fall in systolic blood pressure in spontaneously hypertensive rats 4 hr after 25 mg/kg po administration;NS means nonsignificant difference between treated and control group; format: functional, organism-based; design: dose 25 mg/kg; conditions: Artery, at 25 mg/kg
Rattus norvegicus [3] = experiment: Antihypertensive activity as percentage fall in systolic blood pressure in spontaneously hypertensive rats 4 hr after 50 mg/kg po administration; format: functional, Artery
Rattus norvegicus [4] = experiment: Antihypertensive activity as percentage fall in systolic blood pressure in spontaneously hypertensive rats 1 hr after 25 mg/kg po administration;NS means nonsignificant difference between treated and control group; format: functional, organism-based; design: dose 25 mg/kg; conditions: Artery, at 25 mg/kg
Rattus norvegicus [5] = experiment: Antihypertensive activity as percentage fall in systolic blood pressure in spontaneously hypertensive rats 1 hr after 50 mg/kg po administration; format: functional, Artery
Rattus norvegicus [6] = experiment: Antihypertensive activity as percentage fall in systolic blood pressure in spontaneously hypertensive rats 2 hr after 25 mg/kg po administration;NS means nonsignificant difference between treated and control group; format: functional, organism-based; design: dose 25 mg/kg; conditions: Artery, at 25 mg/kg
Rattus norvegicus [7] = experiment: Percentage fall in systolic blood pressure in spontaneously hypertensive rats 2 hr after 50 mg/kg p.o. administration.; format: functional, Artery; conditions: route oral
Rattus norvegicus [8] = experiment: Antihypertensive activity as percentage fall in systolic blood pressure in spontaneously hypertensive rats 3h after 25 mg/kg po administration; format: functional
Rattus norvegicus [9] = experiment: Antihypertensive activity as percentage fall in systolic blood pressure in spontaneously hypertensive rats 4 hr after 12.5 mg/kg po administration;NS means nonsignificant difference between treated and control group; format: functional, organism-based; design: dose 12.5 mg/kg; conditions: Artery, at 12.5 mg/kg
Rattus norvegicus [10] = experiment: Antihypertensive activity as percentage fall in systolic blood pressure in spontaneously hypertensive rats 4 hr after 25 mg/kg po administration; format: functional, Artery
Rattus norvegicus [11] = experiment: Antihypertensive activity as percentage fall in systolic blood pressure in spontaneously hypertensive rats 1 hr after 12.5 mg/kg po administration;NS means nonsignificant difference between treated and control group; format: functional, organism-based; design: dose 12.5 mg/kg; conditions: Artery, at 12.5 mg/kg
Rattus norvegicus [12] = experiment: Antihypertensive activity as percentage fall in systolic blood pressure in spontaneously hypertensive rats 1 hr after 25 mg/kg po administration; format: functional, Artery
Rattus norvegicus [13] = experiment: Antihypertensive activity as percentage fall in systolic blood pressure in spontaneously hypertensive rats 2 hr after 12.5 mg/kg po administration;NS means nonsignificant difference between treated and control group; format: functional, organism-based; design: dose 12.5 mg/kg; conditions: Artery, at 12.5 mg/kg
Rattus norvegicus [14] = experiment: Antihypertensive activity as percentage fall in systolic blood pressure in spontaneously hypertensive rats 2 hr after 25 mg/kg po administration; format: functional, Artery
Rattus norvegicus [15] = experiment: Antihypertensive activity as percentage fall in systolic blood pressure in spontaneously hypertensive rats 3h after 12.5 mg/kg po administration;NS means nonsignificant difference between treated and control group; format: functional, organism-based; design: dose 12.5 mg/kg; conditions: Artery, at 12.5 mg/kg
Rattus norvegicus [16] = experiment: Antihypertensive activity as percentage fall in systolic blood pressure in spontaneously hypertensive rats 1 hr after 0.31 mg/kg po administration; format: functional, Artery
Rattus norvegicus [17] = experiment: Antihypertensive activity as percentage fall in systolic blood pressure in spontaneously hypertensive rats 4 hr after 0.31 mg/kg po administration; format: functional, Artery
Rattus norvegicus [18] = experiment: Antihypertensive activity as percentage fall in systolic blood pressure in spontaneously hypertensive rats 2 hr after 0.31 mg/kg po administration; format: functional, Artery
Rattus norvegicus [19] = experiment: Antihypertensive activity as percentage fall in systolic blood pressure in spontaneously hypertensive rats 3h after 0.31 mg/kg po administration; format: functional, Artery
Rattus norvegicus [20] = experiment: Antihypertensive activity as percentage fall in systolic blood pressure in spontaneously hypertensive rats 3h after 1.25 mg/kg po administration
Rattus norvegicus [21] = experiment: Antihypertensive activity as percentage fall in systolic blood pressure in spontaneously hypertensive rats 4 hr after 1.25 mg/kg po administration
Rattus norvegicus [22] = experiment: Antihypertensive activity as percentage fall in systolic blood pressure in spontaneously hypertensive rats 1 hr after 1.25 mg/kg po administration
Rattus norvegicus [23] = experiment: Antihypertensive activity as percentage fall in systolic blood pressure in spontaneously hypertensive rats 2 hr after 1.25 mg/kg po administration

For `CCN1C[C@]2(CCN3CCc4cc(OC)c(OC)cc4[C@@H]3C2)OC1=O`, the Fall (Rattus norvegicus [1]) was “Not significant”, the Fall (Rattus norvegicus [2]) was “Not significant” and the Fall (Rattus norvegicus [3]) was 18%. The Fall (Rattus norvegicus [4]) was “Not significant”, the Fall (Rattus norvegicus [5]) was 43% and the Fall (Rattus norvegicus [6]) was “Not significant”. The Fall (Rattus norvegicus [7]) was 30% and the Fall (Rattus norvegicus [8]; Artery, at 25 mg/kg) was “Not significant”.

`O=C(NC1CCN(CCc2c[nH]c3ccccc23)CC1)c1ccccc1` [INDORAMIN] was tested, and the Fall (Rattus norvegicus [9]) was “inactive”, the Fall (Rattus norvegicus [10]) was 30% and the Fall (Rattus norvegicus [11]) was “inactive”. The Fall (Rattus norvegicus [12]) was 27%, the Fall (Rattus norvegicus [13]) was “inactive” and the Fall (Rattus norvegicus [14]) was 28%. For the same compound, the Fall (Rattus norvegicus [15]) was “inactive” and the Fall (Rattus norvegicus [8]) was 34%.

`COc1cc2nc(N3CCN(C(=O)c4ccco4)CC3)nc(N)c2cc1OC` [PRAZOSIN] gave a Fall (Rattus norvegicus [16]) of 19%, a Fall (Rattus norvegicus [17]) of 26% and a Fall (Rattus norvegicus [18]) of 31%. For the same compound, the Fall (Rattus norvegicus [19]) was 21%, the Fall (Rattus norvegicus [20]) was 36% and the Fall (Rattus norvegicus [21]) was 31%. It also gave a Fall (Rattus norvegicus [22]) of 26% and a Fall (Rattus norvegicus [23]) of 46%.
